These results are taken from a melting point compilation (Tetko et al.; mined from patent text by program, amines drawn as free bases though some values may be those of a salt).

In the case of `CCC1CC2CC(=O)OC3OC4(C)CCC(C1C)C23OO4` (single isomer, unassigned; (+)), the melting point lay within 155 to 157 °C.
Under `COC(=O)CC(C(=O)c1cccc(OCc2ccccc2)c1)c1ccccc1` (racemic) stands 88 to 89 °C.
In turn, `COc1c(-c2ccc(C=NNS(C)(=O)=O)cc2)cc(N2CCC(=O)NC2=O)cc1C(C)(C)C` displayed a melting point of 209 to 211 °C.
As for `Cc1ccc2c3ccccc3n(CC(O)CN3CCNCC3c3ccc(Cl)c(Cl)c3)c2c1` (configuration not stated), the melting point was determined as 140 °C.
The compound `O=[N+]([O-])c1oc2c(NS(=O)(=O)C(F)(F)F)cccc2c1-c1ccccc1` returned a melting point of 168 to 170 °C.
`CC(C)n1nc(-c2c(-c3ccccc3)nn3ccc(OCC(=O)OCc4ccccc4)cc23)ccc1=O` yielded a melting point of 174 °C.
Under `Fc1ccc(-c2ncn(CCCCN3CCOCC3)c2-c2ccncc2)cc1` stands 103 to 104 °C; under `O=C1N(Cc2ccccn2)c2ccccc2C12COc1cc3[nH]ncc3cc12` (configuration not stated), 117 to 119 °C.
In turn, `COC(=O)C1Cc2cc(-c3ccc(C(C)O)cc3)ccc2O1` (configuration not stated) returned a melting point of 98 to 100 °C.
The result for `COc1ccc(C(=O)OC2C=C(C)C(=O)CC(C)(C)C2O)cc1OC` (configuration not stated) reads 161 to 164 °C; that for `COc1cc(C2CCCCC2)ccc1C(O)CCC(=O)O` (configuration not stated), 105 to 106 °C; that for `COC(=O)c1cscc1NC(=O)CCl`, 98 to 100 °C.
`CCC1(CC)c2cc(N)ccc2-c2ccc(-c3nc4ccccc4s3)cc21` displayed a melting point of 206 to 207 °C.
As to `CC(C)(Cc1c[nH]c2ccccc12)NCC(O)COc1ccccc1C#N` (configuration not stated), the melting point lay in the range of 120 to 123 °C.
The result for `COC(=O)c1c(-c2ccccc2)[nH]c(-c2ccncc2)c1C` reads 202 to 204 °C; that for `CC(=O)Nc1ccc2c(c1)OCCCO2`, 108 to 109 °C.
In turn, `Nc1ccc(-c2ncc(NC(=O)OCc3ccccc3)c(=O)n2CC(=O)NC(Cc2ccccc2)C(=O)C(F)(F)F)cc1` (configuration not stated) had a melting point of 98 to 101 °C.
Under `CC(C)(C)c1nc(C(=O)c2cccs2)nc(C(C)(C)C)c1O` stands 158 to 159 °C.
`COC(=O)C(CCC#N)(CCC#N)C(=O)OC` returned a melting point of 143 °C.
Under `O=C1CC(=O)CC(CC2CCOCC2)C1` stands 129 to 130 °C.
Regarding `O=[N+]([O-])c1ccc(Cl)cc1Nc1cccc(Cl)c1`, the melting point was found to be 112 °C.
The compound `NC(=O)c1cc(NC(=O)c2ccccc2)ccc1SSc1ccc(NC(=O)c2ccccc2)cc1C(N)=O` came in with a melting point of 273 to 274 °C.
The result for `CP(C)(=O)COC(=O)c1ccccc1Nc1ccnc2c(C(F)(F)F)cccc12` reads 176 °C; that for `CCc1nc(OC)c(NC(=O)N2CCN(c3cc(OC)cc(OC)c3)CC2)cc1C`, 115 to 116 °C; that for `O=C(O)C(=O)c1ccc(OCCOc2ccc3ccccc3c2)c([N+](=O)[O-])c1`, 164 °C.
Take `O=S(=O)(c1ccc(F)cc1)C(F)(F)C(F)(F)C(F)(F)C(F)(F)S(=O)(=O)c1ccc(F)cc1`: the melting point is 126 to 127 °C.
`[N-]=[N+]=C1C(=O)c2ccccc2-c2ccccc21` came in with a melting point of 107 to 109 °C.
In turn, `CNC(=O)c1cc2c(Oc3ccc(-c4noc(C(F)(F)F)n4)cc3)cncc2s1` registered a melting point of 174 to 176 °C.
Compound `N#CCCCCC(N)=O` returned a melting point of 63 to 65 °C.
Compound `COc1ccc(S(=O)(=O)N2c3ccc(Br)cc3-c3ccccc3C2C)cc1C` (configuration not stated) registered a melting point of 219 to 221 °C.
The compound `COc1cc2[nH]ccc(=O)c2cc1OC` had a melting point of 120 to 122 °C.
Under `Cc1c(Cc2cccnc2)oc2ccc(Br)cc12` stands 57 to 58 °C.
The result for `CCN1C(=O)CC(C(=O)O)C1c1c(Cl)cccc1Cl` (configuration not stated) reads 195 to 197 °C.
Compound `OC(CCN1CCC(c2ccccc2)CC1)c1ccc(-c2ccccc2)cc1` (configuration not stated) yielded a melting point of 99 to 101 °C.
The compound `Cn1cc(C(=O)NCC(=O)NCC2(O)CCC2)c(C(F)(F)F)n1` returned a melting point of 210 °C.
Take `Cc1ccn(-c2ccc(C(=O)O)c(Cl)c2)n1`: the melting point is 192 to 193 °C.
Under `CCS(=O)(=O)Nc1ccc(F)c([N+](=O)[O-])c1` stands 133 to 136 °C; under `Cc1ccc2c(C3=C(c4cn(C)c5ccccc45)C(=O)NC3=O)cn(C)c2c1`, 264 to 266 °C.
Take `O=C(N[C@@H]1CN(C2CCCCC2)C[C@H]1O)c1ccc([N+](=O)[O-])cc1` (relative stereo): the melting point was 156 to 157 °C.
The result for `Cn1ccnc1Sc1ccc(Nc2c(C#N)cnc3cc(-c4ccc(N5CCSCC5)nc4)ccc23)cc1Cl` reads > 260 °C.
`Cc1cccc(-c2[nH]c(C(C)C)nc2-c2cccc(-c3ccc4c(c3)C(=O)CCS4(=O)=O)c2)n1` showed a melting point of 115 to 119 °C.
In the case of `CC(C(=O)O)c1ccc(C(F)(F)F)cc1` (configuration not stated), the melting point lay within 56 to 58 °C.
The compound `Cc1cc(Cl)ccc1NC=NO` came in with a melting point of 171 to 172 °C.
The result for `CCn1ncc(NCC(O)CO)c(Cl)c1=O` (configuration not stated) reads 120 to 124 °C.
In turn, `O=C(O)CCCCCCCCCCn1c(-c2ccccc2)nc(-c2ccccc2)c1-c1ccccc1` had a melting point of 76 to 78 °C.
Consider `OCCc1c(-c2ccccc2)[nH]c2nccnc12`, for which the melting point was in the range of 201 to 202 °C.
Consider `CCCN(CCC)c1c2c(nn1C)N(c1c(C)cc(C)cc1Cl)CCC2`, for which the melting point was 90 to 91 °C.
In turn, `Cc1cc(C(O)(C(F)(F)F)C(F)(F)F)cc(C)c1NCCC#N` came in with a melting point of 111 to 114 °C.
Compound `O=C(N[C@@H](Cc1ccccc1)C[C@H](O)[C@H](Cc1ccccc1)NC(=O)OCc1nccs1)OCc1nccs1` yielded a melting point of 66 to 69 °C.
Under `CNc1c(-c2cc(Cl)ccc2O)c2cc(C(F)(F)F)ccc2[nH]c1=O` stands 238 to 240 °C; under `Nc1ncnn1C(=S)NCc1ccccc1`, 157 to 158 °C; under `CCOP(=O)(OCC)c1nc(NC(C)C)nc(NC(C)C)n1`, 91 to 94 °C.
Turning to `NC(=S)NC[C@H]1CN(c2ccc(N3CCOCC3)c(F)c2)C(=O)O1`, the melting point is 199 to 200 °C.
Compound `CCOC(=O)c1cnn(-c2c(Cl)cc(C(F)(F)F)cc2Cl)c1N` displayed a melting point of 131 to 134 °C.
Under `CC(=O)Oc1cccc2c1NC(O)C1CCCN1C2=O` (configuration not stated) stands 143 to 145 °C; under `CCOC(=O)c1ncc2[nH]c3ccc(I)cc3c2n1`, 264 to 266 °C; under `CCCCc1nn(-c2cc([N+](=O)[O-])ccc2C(F)(F)F)c(=O)n1Cc1ccc(-c2ccccc2S(=O)(=O)NC(C)(C)C)cc1`, 135 to 137 °C.
The result for `CCCNCc1cccc(OCCCNc2nc(N)nn2C)c1` reads 79 to 81 °C.
Turning to `Cc1cccc2nc(-c3ccc(Cl)cc3)c(C(N)=O)c(=O)n12`, the melting point fell in the range of 202 to 204 °C.
Turning to `O=C(O)COc1ccc2c(=O)c3ccc(Cl)cc3oc2c1Cl`, the melting point is 270 °C.
Turning to `CNC(=S)N1CC(c2ccccc2)C(c2ccc(Cl)cc2)=N1` (configuration not stated), the melting point fell in the range of 181 to 183 °C.
Compound `COC(=O)c1cc(Cl)cc(C(=O)OC)n1` registered a melting point of 132 to 134 °C.
`COc1ccc(C(O)(C2CC2)C2CC2)c2c1nc1n2CCCN1c1ccc(Cl)cc1Cl` had a melting point of 219 to 220 °C.
As to `COc1c2c(cc3ccccc13)CCC(C(=O)O)C2` (configuration not stated), the melting point stood at 192 °C.
`O=C1C(=O)N(Cc2ccc(Nc3ncccn3)cc2)CCN1Cc1ccc(Nc2ncccn2)cc1` yielded a melting point of 226 to 228 °C.
`O=C(O)c1csc(-c2cccc(Cn3cc(C4c5ccccc5C=Cc5ccccc54)c(=S)[nH]c3=O)c2)n1` showed a melting point of 165 °C.
Turning to `O=C(O)c1cccc2oc(-c3ccccc3OCc3ccccc3)nc12`, the melting point was 103 to 104 °C.
Compound `O=S(=O)(Nc1ncnc(Cl)c1-c1ccc(OCc2ccccc2)cc1)c1ccc(Cl)cc1` came in with a melting point of 234 to 236 °C.
In the case of `O=C(NCc1ccc(Cl)cc1)c1cn(-c2ccccc2)c2oc(CCl)cc2c1=O`, the melting point lay within 207 to 209 °C.
Take `CSc1sc(C(N)=O)c2c1-c1[nH]c(-c3ccccc3)nc1CC2`: the melting point lay within 206 to 207 °C.
Under `CS(=O)(=O)NC(c1ccccc1)c1ccccc1` stands 148 to 150 °C; under `CCCOc1cc(C)ccc1-c1nc(N)c(N=O)c(=O)[nH]1`, 214 to 216 °C; under `Nc1cc(F)cc2c(Cl)ccnc12`, 98 to 103 °C.
On to `COc1ccc(-c2ccc3cnc(Nc4ccc(N5CCN(CC(N)=O)CC5)c(F)c4)nn23)cn1`, for which the melting point was determined as 217 °C.
As for `Cc1ccc2c(c1)C(O)(c1ccccn1)CC(C)(C)CO2` (configuration not stated), the melting point came out at 126 °C.
With `O=C(OCC1CCCO1)C1Oc2ccccc2Cc2ccccc2O1` (configuration not stated), the melting point is 83 to 85 °C.
The result for `CN1CC2Cc3ccc(Cl)cc3C(O)C2C1` (configuration not stated) reads 178 to 182 °C; that for `Cc1cc(C)cc(C(=O)c2c(C(C)C)c(=O)[nH]c(=O)n2COCc2ccccc2)c1`, 68 to 70 °C.
Compound `O=c1ccc(OS(=O)(=O)C(F)(F)F)n[nH]1` displayed a melting point of 130 to 132 °C.
As to `OC1CCCc2nc3ccccc3c(NCCCC(c3ccccc3)c3ccccc3)c21` (configuration not stated), the melting point lay within 147 to 148 °C.
Consider `CCOc1cc(N(CC)CC)ccc1C1(N(c2ccc(N(C)C)cc2)c2ccc(N(C)C)cc2)OC(=O)c2ccccc21` (configuration not stated), for which the melting point lay in the range of 58 to 69 °C.
Turning to `ClCc1ccc(OCCCCc2ccccc2)cc1`, the melting point lay in the range of 60 to 62 °C.
Under `CCOC(=O)CC(=O)c1ccc(Br)cc1Cl` stands 34 °C; under `CCOC(=O)C=Cc1cnc(N(Cc2ccc(OC)c(OC)c2)C(=O)OC(C)(C)C)n2nc(-c3ccco3)nc12`, 124 to 129 °C.
Turning to `COc1cc2c(Nc3ccc(Br)cc3F)ncnc2cc1OCCCSC`, the melting point lay within 250 to 252 °C.
The result for `CCCn1c(COCC)nc2c(N)nc3cc(OC4CCN(C(=O)OC(C)(C)C)CC4)ccc3c21` reads 194 to 195 °C; that for `COC(=O)c1ncc(OCc2ccccn2)nc1NCc1ccc(OC)c(Cl)c1`, 132 to 133 °C.
